In patent US20210115494A1, “Improved method for measurement of microbial biomass” (Mycometer A/S, priority 2018, published 2021):

What was measured:
[1] = tested on: NAHA activity from Cat dander; assay: NAHA activity assay, cat dander; format: biochemical
Method: (§1) In order to determine NAHA activity in different samples, the technology in WO 98/033934 was employed: A sample containing a dried or freeze dried organism is added to a buffer solution containing 4-Methylumbelliferyl N-acetyl-β-D-glucosaminide in a concentration of 20 μM. The reaction-time is varied depending on the ambient temperature and according to a reaction-time/temperature data sheet previously developed for fungal NAHA activity at various temperatures, and is 30 minutes at 23° C. The resulting fluorescence formed during the reaction time is monitored in a calibrated fluorometer.
(§2) Experiments were conducted where varying concentrations of AgNO3 was added to an analysis substrate. Furthermore, the experiments where performed on dried or freeze dried materials where both intact and fragmented cells are to be expected to be present.
(§3) Experiments analogous to those in example 1 were carried out, but instead of using non-specific inhibitors, the effect of different concentrations of DNJNAc on the NAHA activity in various biomass containing samples was investigated.

[2] = tested on: NAHA activity from Dermatophagoides pteronyssinus (Dust mite); assay: NAHA activity assay, dust mite; format: biochemical; conditions: Dermatophagoides pteronyssinus (House dust mite)
Method: as §1, §2, §3

[3] = tested on: NAHA activity from Lepidoglyphus destructor (Storage mite); assay: NAHA activity assay, storage mite; format: biochemical; conditions: Lepidoglyphus destructor (Storage mite)
Method: as §1, §2, §3

[4] = tested on: NAHA activity from Mugworth pollen; assay: NAHA activity assay, mugworth pollen; format: biochemical
Method: as §1, §2, §3

[5] = tested on: NAHA activity from Rhizopus stolonifer; assay: NAHA activity assay, Rhizopus stolonifer; format: biochemical
Method: as §1, §3

fungal NAHA activity = assay: NAHA activity assay, fungal sources overall; format: biochemical, fungi
Method: as §1, §2, §3
The experiments were performed with whole cell/organism cultures rather than purified enzyme, which is normally used in experiments on specific inhibition. It is plausible, though, that the surprising non-specific inhibition effect observed for Ag^+ and Hg^+ could be due to the inhibitors being delayed in physically contacting the NAHA enzyme in the fungi when compared to other types of biomass.

[6] = tested on: NAHA activity from Mucor hiemalis; assay: NAHA activity assay, Mucor hiemalis; format: biochemical
Method: as §1, §2, §3

[7] = tested on: NAHA activity from Birch pollen; assay: NAHA activity assay, birch pollen; format: biochemical; conditions: Birch sollen
Method: as §1, §2, §3

[8] = tested on: NAHA activity from Ambrosia psilostachya (Rag weed pollen); assay: NAHA activity assay, rag weed pollen; format: biochemical
Method: as §1, §2, §3

[9] = tested on: NAHA activity from Alternaria tenuissima; assay: NAHA activity assay, Alternaria tenuissima; format: biochemical
Method: as §1, §3

[10] = tested on: NAHA activity from Aspergillus fumigatus freeze dried; assay: NAHA activity assay, Aspergillus fumigatus freeze dried; format: biochemical; conditions: Aspergillus fumigatus (Freeze dried)
Method: as §1, §2, §3

[11] = tested on: NAHA activity from Stachybotrys chartarum; assay: NAHA activity assay, Stachybotrys chartarum; format: biochemical
Method: as §1, §2, §3

non-fungal NAHA activity = assay: NAHA activity assay, non-fungal sources overall; format: biochemical
Method: as §1, §2, §3

[12] = tested on: NAHA activity from Acremonium spp.; assay: NAHA activity assay, Acremonium spp.; format: biochemical; conditions: Acremonium sp.
Method: as §1, §2, §3

[13] = tested on: NAHA activity from Trichoderma harzianum; assay: NAHA activity assay, Trichoderma harzianum; format: biochemical
Method: as §1, §3

[14] = tested on: NAHA activity from Human skin cells; assay: NAHA activity assay, human skin cells; format: biochemical
Method: as §1, §2, §3

[15] = tested on: NAHA activity from Fusarium culmorum; assay: NAHA activity assay, Fusarium culmorum; format: biochemical
Method: as §1, §2, §3

[16] = tested on: NAHA activity from Aureobasidium pullulans; assay: NAHA activity assay, Aureobasidium pullulans; format: biochemical
Method: as §1, §2, §3

[17] = tested on: NAHA activity from Graham-flour; assay: NAHA activity assay (4-methylumbelliferyl N-acetyl-β-D-glucosaminide, fluorescence), Graham-flour; format: biochemical; conditions: Graham Hour
Method: as §1, §2, §3

[18] = tested on: NAHA activity from Chaetomium globosum; assay: NAHA activity assay, Chaetomium globosum; format: biochemical
Method: as §1, §3

[19] = tested on: NAHA activity from Aspergillus versicolor; assay: NAHA activity assay, Aspergillus versicolor; format: biochemical
Method: as §1, §3

[20] = tested on: NAHA activity from Grass pollen; assay: NAHA activity assay, grass pollen; format: biochemical; conditions: Grass pollen
Method: as §1, §2, §3

## CC(=O)N[C@H]1CN[C@H](CO)[C@@H](O)[C@@H]1O [DNJNAc, 2-Acetamido-1,2-dideoxynojirimycin]
[1]; DNJNAc 24.5 μM
  NAHA activity, 0 μM DNJNAc = 100%: 7%
[1]; DNJNAc 49 μM
  NAHA activity, 0 μM DNJNAc = 100%: 5%
[1]; DNJNAc 98 μM
  NAHA activity, 0 μM DNJNAc = 100%: 3%
[1]; DNJNAc 196 μM
  NAHA activity, 0 μM DNJNAc = 100%: 2%
[2]; DNJNAc 24.5 μM
  NAHA activity, 0 μM DNJNAc = 100%: 5%
[2]; DNJNAc 49 μM
  NAHA activity, 0 μM DNJNAc = 100%: 2%
[2]; DNJNAc 98 μM
  NAHA activity, 0 μM DNJNAc = 100%: 1%
[2]; DNJNAc 196 μM
  NAHA activity, 0 μM DNJNAc = 100%: 1%
[3]; DNJNAc 24.5 μM
  NAHA activity, 0 μM DNJNAc = 100%: 3%
[3]; DNJNAc 49 μM
  NAHA activity, 0 μM DNJNAc = 100%: 2%
[3]; DNJNAc 98 μM
  NAHA activity, 0 μM DNJNAc = 100%: 1%
[3]; DNJNAc 196 μM
  NAHA activity, 0 μM DNJNAc = 100%: 0%
[4]; DNJNAc 24.5 μM
  NAHA activity, 0 μM DNJNAc = 100%: 8%
[4]; DNJNAc 49 μM
  NAHA activity, 0 μM DNJNAc = 100%: 6%
[4]; DNJNAc 98 μM
  NAHA activity, 0 μM DNJNAc = 100%: 5%
[4]; DNJNAc 196 μM
  NAHA activity, 0 μM DNJNAc = 100%: 4%
[5]; DNJNAc 24.5 μM
  NAHA activity, 0 μM DNJNAc = 100%: 46%
[5]; DNJNAc 49 μM
  NAHA activity, 0 μM DNJNAc = 100%: 32%
[5]; DNJNAc 98 μM
  NAHA activity, 0 μM DNJNAc = 100%: 23%
[5]; DNJNAc 196 μM
  NAHA activity, 0 μM DNJNAc = 100%: 18%
Fungal NAHA activity; 24.5 μM in the assay substrate
  fungal NAHA activity retained, average: 83%
Fungal NAHA activity; 196 μM
  fungal NAHA activity retained, average: 60%
[6]; DNJNAc 24.5 μM
  NAHA activity, 0 μM DNJNAc = 100%: 58%
[6]; DNJNAc 49 μM
  NAHA activity, 0 μM DNJNAc = 100%: 37%
[6]; DNJNAc 98 μM
  NAHA activity, 0 μM DNJNAc = 100%: 45%
[6]; DNJNAc 196 μM
  NAHA activity, 0 μM DNJNAc = 100%: 25%
[7]; DNJNAc 24.5 μM
  NAHA activity, 0 μM DNJNAc = 100%: 10%
[7]; DNJNAc 49 μM
  NAHA activity, 0 μM DNJNAc = 100%: 9%
[7]; DNJNAc 98 μM
  NAHA activity, 0 μM DNJNAc = 100%: 8%
[7]; DNJNAc 196 μM
  NAHA activity, 0 μM DNJNAc = 100%: 9%
[8]; DNJNAc 24.5 μM
  NAHA activity, 0 μM DNJNAc = 100%: 8%
[8]; DNJNAc 49 μM
  NAHA activity, 0 μM DNJNAc = 100%: 6%
[8]; DNJNAc 98 μM
  NAHA activity, 0 μM DNJNAc = 100%: 5%
[8]; DNJNAc 196 μM
  NAHA activity, 0 μM DNJNAc = 100%: 4%
[9]; DNJNAc 24.5 μM
  NAHA activity, 0 μM DNJNAc = 100%: 72%
[9]; DNJNAc 49 μM
  NAHA activity, 0 μM DNJNAc = 100%: 79%
[9]; DNJNAc 98 μM
  NAHA activity, 0 μM DNJNAc = 100%: 58%
[9]; DNJNAc 196 μM
  NAHA activity, 0 μM DNJNAc = 100%: 48%
[10]; DNJNAc 24.5 μM
  NAHA activity, 0 μM DNJNAc = 100%: 114%
[10]; DNJNAc 49 μM
  NAHA activity, 0 μM DNJNAc = 100%: 105%
[10]; DNJNAc 98 μM
  NAHA activity, 0 μM DNJNAc = 100%: 104%
[10]; DNJNAc 196 μM
  NAHA activity, 0 μM DNJNAc = 100%: 96%
[11]; DNJNAc 24.5 μM
  NAHA activity, 0 μM DNJNAc = 100%: 90%
[11]; DNJNAc 98 μM
  NAHA activity, 0 μM DNJNAc = 100%: 97%
[11]; DNJNAc 196 μM
  NAHA activity, 0 μM DNJNAc = 100%: 85%
non-fungal NAHA activity; 24.5 μM in the assay substrate
  non fungal activity retained, average: 11%
non-fungal NAHA activity; 196 μM
  non-fungal NAHA activity retained, average of the control: 5%
[12]; DNJNAc 24.5 μM
  NAHA activity, 0 μM DNJNAc = 100%: 99%
[12]; DNJNAc 49 μM
  NAHA activity, 0 μM DNJNAc = 100%: 92%
[12]; DNJNAc 98 μM
  NAHA activity, 0 μM DNJNAc = 100%: 80%
[12]; DNJNAc 196 μM
  NAHA activity, 0 μM DNJNAc = 100%: 76%
[13]; DNJNAc 24.5 μM
  NAHA activity, 0 μM DNJNAc = 100%: 120%
[13]; DNJNAc 49 μM
  NAHA activity, 0 μM DNJNAc = 100%: 93%
[13]; DNJNAc 98 μM
  NAHA activity, 0 μM DNJNAc = 100%: 92%
[13]; DNJNAc 196 μM
  NAHA activity, 0 μM DNJNAc = 100%: 83%
[14]; DNJNAc 24.5 μM
  NAHA activity, 0 μM DNJNAc = 100%: 3%
[14]; DNJNAc 49 μM
  NAHA activity, 0 μM DNJNAc = 100%: 1%
[14]; DNJNAc 98 μM
  NAHA activity, 0 μM DNJNAc = 100%: 1%
[14]; DNJNAc 196 μM
  NAHA activity, 0 μM DNJNAc = 100%: 1%
[15]; DNJNAc 24.5 μM
  NAHA activity, 0 μM DNJNAc = 100%: 85%
[15]; DNJNAc 49 μM
  NAHA activity, 0 μM DNJNAc = 100%: 82%
[15]; DNJNAc 98 μM
  NAHA activity, 0 μM DNJNAc = 100%: 98%
[15]; DNJNAc 196 μM
  NAHA activity, 0 μM DNJNAc = 100%: 95%
[16]; DNJNAc 24.5 μM
  NAHA activity, 0 μM DNJNAc = 100%: 56%
[16]; DNJNAc 49 μM
  NAHA activity, 0 μM DNJNAc = 100%: 67%
[16]; DNJNAc 98 μM
  NAHA activity, 0 μM DNJNAc = 100%: 50%
[16]; DNJNAc 196 μM
  NAHA activity, 0 μM DNJNAc = 100%: 27%
[17]; DNJNAc 24.5 μM
  NAHA activity, 0 μM DNJNAc = 100%: 14%
[17]; DNJNAc 49 μM
  NAHA activity, 0 μM DNJNAc = 100%: 9%
[17]; DNJNAc 98 μM
  NAHA activity, 0 μM DNJNAc = 100%: 6%
[17]; DNJNAc 196 μM
  NAHA activity, 0 μM DNJNAc = 100%: 6%
[18]; DNJNAc 24.5 μM
  NAHA activity, 0 μM DNJNAc = 100%: 88%
[18]; DNJNAc 49 μM
  NAHA activity, 0 μM DNJNAc = 100%: 91%
[18]; DNJNAc 98 μM
  NAHA activity, 0 μM DNJNAc = 100%: 92%
[18]; DNJNAc 196 μM
  NAHA activity, 0 μM DNJNAc = 100%: 81%
[19]; DNJNAc 24.5 μM
  NAHA activity, 0 μM DNJNAc = 100%: 92%
[19]; DNJNAc 49 μM
  NAHA activity, 0 μM DNJNAc = 100%: 79%
[19]; DNJNAc 98 μM
  NAHA activity, 0 μM DNJNAc = 100%: 71%
[19]; DNJNAc 196 μM
  NAHA activity, 0 μM DNJNAc = 100%: 63%
[20]; DNJNAc 24.5 μM
  NAHA activity, 0 μM DNJNAc = 100%: 41%
[20]; DNJNAc 49 μM
  NAHA activity, 0 μM DNJNAc = 100%: 37%
[20]; DNJNAc 98 μM
  NAHA activity, 0 μM DNJNAc = 100%: 30%
[20]; DNJNAc 196 μM
  NAHA activity, 0 μM DNJNAc = 100%: 20%
